Where two headings read alike, the source gives them in different places.
Columns and labels:
[1] = Relative lipophilicity (capacity factor k’) by reversed-phase HPLC; format: physicochemical; settings: methanol-phosphoric acid buffer eluent, pH 2
Experimental: The relative lipophilicity of 6 was determined as capacity factor k’ (k’ = (tretention - tsolvent) / tsolvent) by reversed-phase HPLC using a methanol-phosphoric acid buffer eluent system at pH 2. […] This method has already been described elsewhere. The capacity factor k’ (k’ = (tretention - tsolvent) / tsolvent) was determined using reversed-phase HPLC and enables different (radio)folates to be compared based on their polarity. The values determined can be used to give hint to the in vivo behavior in terms of the degree of hepatobiliary excretion by comparison with literature examples.

folate receptor = target: T1, folate receptor (Homo sapiens, UniProt P15328); assay: Displacement assay with [^3H]folic acid on FR-positive human KB cells; format: binding
T1 construct: using [^3H]folic acid and human KB cells in cell suspension; endogenous in cells; host or cells: human KB cells
Experimental: FR-positive human KB cells were kept under folate-deficient conditions to adjust the folate concentration levels to that of the human serum.
Figure 1 Displacement assay. […] Experiments were conducted in triplicate (n = 3).

KB tumor-bearing mice = settings: 45 min p.i., n = 4, cited from earlier work
[2] = reversed-phase HPLC; cited from earlier work

T1 sequence (P15328 25-257): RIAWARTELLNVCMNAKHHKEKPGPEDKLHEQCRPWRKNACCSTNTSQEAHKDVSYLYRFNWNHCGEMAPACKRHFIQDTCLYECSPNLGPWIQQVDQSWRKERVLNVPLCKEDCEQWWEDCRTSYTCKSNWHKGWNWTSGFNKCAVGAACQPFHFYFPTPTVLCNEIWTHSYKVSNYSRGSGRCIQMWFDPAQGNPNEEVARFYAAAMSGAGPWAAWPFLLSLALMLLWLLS

capacity factor k’ [1] | IC50 (folate receptor) [nM] | Ki (folate receptor) [nM] | SMILES | Ratio of tumor to Kidney (KB tumor-bearing mice) | Ratio of tumor to Liver (KB tumor-bearing mice) | %ID/g Blood (KB tumor-bearing mice; Blood) [%ID/g] | %ID/g Bone (KB tumor-bearing mice; Bone) [%ID/g] | %ID/g Feces (KB tumor-bearing mice; Feces) [%ID/g] | %ID/g Gall bladder (KB tumor-bearing mice; Gall bladder) [%ID/g] | %ID/g Heart (KB tumor-bearing mice; Heart) [%ID/g] | %ID/g Intestines (empty) (KB tumor-bearing mice; Intestines (empty)) [%ID/g] | %ID/g Tumor (KB tumor-bearing mice; KB tumor) [%ID/g] | %ID/g Kidneys (KB tumor-bearing mice; Kidneys) [%ID/g] | %ID/g Liver (KB tumor-bearing mice; Liver) [%ID/g] | %ID/g Lung (KB tumor-bearing mice; Lung) [%ID/g] | %ID/g Spleen (KB tumor-bearing mice; Spleen) [%ID/g] | %ID/g Stomach (empty) (KB tumor-bearing mice; Stomach (empty)) [%ID/g] | capacity factor k’ [2]
1.12 | 3.1 | 1.6 | Nc1nc2ncc(CNc3ccc(C(=O)N[C@@H](CCC(=O)NCCOCCOCCOCCn4cc(COCCOCCOCCF)nn4)C(=O)O)cc3)nc2c(=O)[nH]1 [Compound 6] |  |  |  |  |  |  |  |  |  |  |  |  |  |  | 
 |  |  | Nc1nc2ncc(CNc3ccc(C(=O)NC(CCC(=O)NCCCCn4cc(CCCC[18F])nn4)C(=O)O)cc3)nc2c(=O)[nH]1 (stereo not drawn) [^18 F-click folate] | 0.19 ± 1.38 | 1.18 ± 0.69 | 0.13 ± 0.01 | 0.13 ± 0.01 | 56.00 ± 27.64 | 667.4 ± 530.1 | 0.90 ± 0.22 | 19.59 ± 5.26 | 3.13 ± 0.83 | 16.53 ± 2.22 | 1.71 ± 0.14 | 0.85 ± 0.04 | 0.33 ± 0.12 | 2.50 ± 0.6 | 2.28

— article PMC3849131, “^18 F-click labeling and preclinical evaluation of a new ^18 F-folate for PET imaging” (EJNMMI Research, 2013)
